Source: PubChem BioAssay (NCI)
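Method: 48-hour compound exposure of cells in 96-well plates, five concentrations, linear interpolation of endpoints. GI50 marks 50% less growth. TGI denotes the concentration required for complete inhibition of growth.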

Legend:
Experiment in all cases: NCI anticancer screen, dose series, 48 h
IGROV1 ovarian = system: IGROV1 ovarian
SK-OV-3 ovarian = system: SK-OV-3 ovarian
EKVX NSCLC = system: EKVX NSCLC
TK-10 renal = system: TK-10 renal
NCI-H226 lung = system: NCI-H226 lung
SK-MEL-28 melanoma = system: SK-MEL-28 melanoma
RXF 393 renal = system: RXF 393 renal
SK-MEL-2 melanoma = system: SK-MEL-2 melanoma
SF-295 CNS = system: SF-295 CNS
OVCAR-8 ovarian = system: OVCAR-8 ovarian
SN12C renal = system: SN12C renal
SNB-19 CNS = system: SNB-19 CNS
COLO 205 colon = system: COLO 205 colon
OVCAR-5 ovarian = system: OVCAR-5 ovarian
SW-620 colon = system: SW-620 colon
HOP-92 NSCLC = system: HOP-92 NSCLC
DU-145 prostate = system: DU-145 prostate
OVCAR-3 ovarian = system: OVCAR-3 ovarian
RPMI-8226 leukemia = system: RPMI-8226 leukemia
MDA-MB-231 breast = system: MDA-MB-231 breast
NCI-H522 lung = system: NCI-H522 lung
K-562 leukemia = system: K-562 leukemia
T-47D breast = system: T-47D breast
A498 renal = system: A498 renal
UACC-62 melanoma = system: UACC-62 melanoma
LOX IMVI melanoma = system: LOX IMVI melanoma
KM12 colon = system: KM12 colon
M14 melanoma = system: M14 melanoma
BT-549 breast = system: BT-549 breast
SNB-75 CNS = system: SNB-75 CNS
SF-268 CNS = system: SF-268 CNS
CAKI-1 renal = system: CAKI-1 renal
MALME-3M melanoma = system: MALME-3M melanoma
NCI-H460 lung = system: NCI-H460 lung
MCF7 breast = system: MCF7 breast
OVCAR-4 ovarian = system: OVCAR-4 ovarian
HT29 colon = system: HT29 colon
HCT-15 colon = system: HCT-15 colon
NCI-H23 lung = system: NCI-H23 lung
SK-MEL-5 melanoma = system: SK-MEL-5 melanoma
HOP-62 NSCLC = system: HOP-62 NSCLC
MOLT-4 leukemia = system: MOLT-4 leukemia
UACC-257 melanoma = system: UACC-257 melanoma
PC-3 prostate = system: PC-3 prostate
UO-31 renal = system: UO-31 renal
A549 NSCLC = system: A549 NSCLC
HCC-2998 colon = system: HCC-2998 colon
SF-539 CNS = system: SF-539 CNS
HS 578T breast = system: HS 578T breast
MDA-MB-435 = system: MDA-MB-435
HL-60(TB) leukemia = system: HL-60(TB) leukemia
ACHN renal = system: ACHN renal
HCT-116 colon = system: HCT-116 colon
U251 CNS = system: U251 CNS
CCRF-CEM leukemia = system: CCRF-CEM leukemia

NCCOc1ncccc1/C=C1\C2C=CC=CC2C2C=CC(F)=CC12 (stereo not given)
GI50 (IGROV1 ovarian): 1160 nM | TGI (IGROV1 ovarian): 2470 nM | GI50 (SK-OV-3 ovarian): 735 nM | TGI (SK-OV-3 ovarian): 2330 nM | GI50 (EKVX NSCLC): 1200 nM | TGI (EKVX NSCLC): 3050 nM | GI50 (TK-10 renal): 1960 nM | TGI (TK-10 renal): 4310 nM | GI50 (NCI-H226 lung): 1020 nM | TGI (NCI-H226 lung): 2470 nM | GI50 (SK-MEL-28 melanoma): 1510 nM | TGI (SK-MEL-28 melanoma): 2900 nM | GI50 (RXF 393 renal): 1570 nM | TGI (RXF 393 renal): 3170 nM | GI50 (SK-MEL-2 melanoma): 2030 nM | TGI (SK-MEL-2 melanoma): 4360 nM | GI50 (SF-295 CNS): 467 nM | TGI (SF-295 CNS): 1810 nM | GI50 (OVCAR-8 ovarian): 1190 nM | TGI (OVCAR-8 ovarian): 3480 nM | GI50 (SN12C renal): 333 nM | TGI (SN12C renal): 1350 nM | GI50 (SNB-19 CNS): 816 nM | TGI (SNB-19 CNS): 14100 nM | GI50 (COLO 205 colon): 1110 nM | TGI (COLO 205 colon): 2630 nM | GI50 (OVCAR-5 ovarian): 1690 nM | TGI (OVCAR-5 ovarian): 3400 nM | GI50 (SW-620 colon): 1070 nM | TGI (SW-620 colon): 2660 nM | GI50 (HOP-92 NSCLC): 258 nM | TGI (HOP-92 NSCLC): 2190 nM | GI50 (DU-145 prostate): 531 nM | TGI (DU-145 prostate): 1990 nM | GI50 (OVCAR-3 ovarian): 1450 nM | TGI (OVCAR-3 ovarian): 2770 nM | GI50 (RPMI-8226 leukemia): 1580 nM | TGI (RPMI-8226 leukemia): 3850 nM | GI50 (MDA-MB-231 breast): 1640 nM | TGI (MDA-MB-231 breast): 3260 nM | GI50 (NCI-H522 lung): 1690 nM | TGI (NCI-H522 lung): 4090 nM | GI50 (K-562 leukemia): 1010 nM | TGI (K-562 leukemia): 3130 nM | GI50 (T-47D breast): 2070 nM | TGI (T-47D breast): 6150 nM | GI50 (A498 renal): 1530 nM | TGI (A498 renal): 3490 nM | GI50 (UACC-62 melanoma): 1360 nM | TGI (UACC-62 melanoma): 2880 nM | GI50 (LOX IMVI melanoma): 583 nM | TGI (LOX IMVI melanoma): 1960 nM | GI50 (KM12 colon): 1470 nM | TGI (KM12 colon): 2970 nM | GI50 (M14 melanoma): 1350 nM | TGI (M14 melanoma): 3050 nM | GI50 (BT-549 breast): 2640 nM | TGI (BT-549 breast): 10800 nM | GI50 (SNB-75 CNS): 1500 nM | TGI (SNB-75 CNS): 5670 nM | GI50 (SF-268 CNS): 1410 nM | TGI (SF-268 CNS): 11000 nM | GI50 (CAKI-1 renal): 429 nM | TGI (CAKI-1 renal): 1870 nM | GI50 (MALME-3M melanoma): 1420 nM | TGI (MALME-3M melanoma): 3170 nM | GI50 (NCI-H460 lung): 283 nM | TGI (NCI-H460 lung): 1460 nM | GI50 (MCF7 breast): 394 nM | TGI (MCF7 breast): 1730 nM | GI50 (OVCAR-4 ovarian): 2700 nM | TGI (OVCAR-4 ovarian): 10100 nM | GI50 (HT29 colon): 1450 nM | TGI (HT29 colon): 3290 nM | GI50 (HCT-15 colon): 757 nM | TGI (HCT-15 colon): 2280 nM | GI50 (NCI-H23 lung): 666 nM | TGI (NCI-H23 lung): 3010 nM | GI50 (SK-MEL-5 melanoma): 1470 nM | TGI (SK-MEL-5 melanoma): 2790 nM | GI50 (HOP-62 NSCLC): 1060 nM | TGI (HOP-62 NSCLC): 2680 nM | GI50 (MOLT-4 leukemia): 232 nM | TGI (MOLT-4 leukemia): 1100 nM | GI50 (UACC-257 melanoma): 1760 nM | TGI (UACC-257 melanoma): 3860 nM | GI50 (PC-3 prostate): 1150 nM | TGI (PC-3 prostate): 2450 nM | GI50 (UO-31 renal): 1310 nM | TGI (UO-31 renal): 3060 nM | GI50 (A549 NSCLC): 268 nM | TGI (A549 NSCLC): 2040 nM | GI50 (HCC-2998 colon): 1250 nM | TGI (HCC-2998 colon): 2570 nM | GI50 (SF-539 CNS): 1310 nM | TGI (SF-539 CNS): 2610 nM | GI50 (HS 578T breast): 2550 nM | TGI (HS 578T breast): 13100 nM | GI50 (MDA-MB-435): 1810 nM | TGI (MDA-MB-435): 3350 nM | GI50 (HL-60(TB) leukemia): 334 nM | TGI (HL-60(TB) leukemia): 1420 nM | GI50 (ACHN renal): 347 nM | TGI (ACHN renal): 1400 nM | GI50 (HCT-116 colon): 1130 nM | TGI (HCT-116 colon): 2600 nM | GI50 (U251 CNS): 622 nM | TGI (U251 CNS): 2060 nM | GI50 (CCRF-CEM leukemia): 260 nM | TGI (CCRF-CEM leukemia): 5080 nM
